Legend:
[1] = test system: CCl4-induced hepatic fibrosis mice; test: CCl4-induced hepatic fibrosis mice; assay type: in vivo, mouse; conditions: for MMP2 gene expression / TGF-β gene expression / collagen 1 gene expression: CCl4-induced hepatic fibrosis mice, 5 mg/Kg, n = 8
Protocol: Animal: 32 C57BL/6J male mice of SPF level with 25 g were purchased from Beijing Vital River Laboratory Animal Technology Co., Ltd. All the animals maintained 12 h alternative circadian rhythm with free access to food.
Reagent: the ginsenoside Ro was purchased from Shanghai Boka Chemistry Technology Co., Ltd; CCl4 was purchased from sigma Company; and sunflower seed oil was purchased from Nanjing Yuanye Biotechnology Co., Ltd.
The mice were randomly divided into 4 groups based on weights: a blank control group (CTL), a model group (CCl4), a ginsenoside Ro low-dosage group (Low) (5 mg/kg) and a ginsenoside Ro high-dosage group (High) (10 mg/kg), totally 4 groups (with 8 mice each).
A modeling mode was that the mice were given with a CCl4-contained sunflower seed oil solution (with a CCl4 content of 25%, v/v) in a dosage of 2mL/kg by intraperitoneal injection, and the mice in the control group were injected with a corresponding dosage of the sunflower seed oil solution two times per week. From experiment day 1 onward, the mice in the control group were given with a CMC-Na solution with the mass fraction of 0.5% intragastrically every day and with sunflower seed oil two times per week by intraperitoneal injection; the mice in the model group were given with the CMC-Na solution with the mass fraction of 0.5% intragastrically every day and with the CCl4-contained sunflower seed oil solution two times per week by intraperitoneal injection; the mice in the ginsenoside Ro low-dosage group (Low) were given with 5 mg/kg of the ginsenoside Ro intragastrically every day and with a CCl4 solution two times per week by intraperitoneal injection; and the mice in the ginsenoside Ro high-dosage group (High) were given with 10 mg/kg of the ginsenoside Ro intragastrically every day and with the CCl4-contained sunflower seed oil solution two times per week by intraperitoneal injection. Administration was conducted for a total of 4 weeks.
The mice were deprived of food but not water for 12 h in advance; and the next morning, blood was taken from eyeballs, the mice were sacrificed, and livers were harvested. Right liver lobule tissues were fixed with 4% paraformaldehyde for HE stained slicing. The rest liver tissues were divided into 3 parts, which were snap-frozen in liquid nitrogen for subsequent detection of other indexes.
Whole blood was left to still standing for 2 h at room temperature, centrifugation was conducted for 15 min at 3000 rpm, and a serum was collected and sent to Pathologic Department of Hospital of Integrated Traditional Chinese and Western Medicine in Jiangsu Province for determination of levels of glutamic oxalacetic transaminase (AST) and glutamic-pyruvic transaminase (ALT) in the serum with a full-automatic biochemical analyzer.
Pretreated tissues were sent to Google Biotechnology Co., Ltd for preparing HE stained slices.
6. Extraction of Liver Tissue RNA and q-PCR Detection Liver tissues preserved at −80° C. were put in the liquid nitrogen, about 10 mg of the liver tissues were quickly dissected out, about 500 μL of a precooled Trizol reagent was added, the tissues were homogenized with the homogenizer and then left to lyse on the ice for 15 min, 100 μL of chloroform was added for vigorous shaking for 15 s, and a product was put on the ice for 10 min and then was subjected to centrifugation for 15 min at 4° C. and 12000 rpm. An upper aqueous phase was transferred to a clean 1.5 mL EP tube, […] of isopropanol was added for RNA precipitation, the EP tube was put on the ice for 10 min and then was subjected to centrifugation for 10 min at 4° C. and 12000 rpm. The supernate was discarded, precipitates were washed one time with 75% ethyl alcohol, a supernate was discarded after centrifugation, and precipitates of
RNA dissolved with the water were treated with 40 mL of DEPC. […]

[2] = test system: AMPK and mTOR signaling pathways in polycystic kidney epithelial cells; test: Western blot of AMPK and proliferation-related signal molecules in polycystic kidney epithelial cells; assay type: cell-based, human; conditions: 10 μM, 48 h, Western blot (FIG. 16)
Description: Cell and reagent: complete media for human ADPKD cyst lining epithelial cell lines WT9-12 and DMEM were purchased from ATCC Company; fetal calf serums were purchased from Gibco Company; Cell Counting Kit-8 was purchased from DOJINDO Company; Click-iT® EdU Imaging Kits were purchased from Invitrogen™ Thermo Fisher Scientific Company; Caspase -3/CPP32 Colorimetric Assay Kit was purchased from BioVision Company; Annexin V/PI double-staining flow type cell apoptosis detection kits were purchased from Bender Company; and anti-Phospho-(AMPKa, mTOR, p70S6K, 4E-BP1) antibodies were purchased from Cell Signaling Technology Company.
Detection on protein expression with Western blot: cells in the control group and the treatment group (intervening the polycystic kidney epithelial cell with 10 μM of asperosaponin VI for 48 h) were collected, cells were lysed with a RIPA lysate for extraction of total proteins, the concentration of proteins was detected with a BCA method, and […] of sample proteins were taken for sample addition in sequence; after SDS-PAGE electrophoresis, the sample proteins were transferred onto PVDF membranes at a constant current (I=250 mA), were blocked for 1 h with 5% BSA and were incubated for 24 h with different primary antibodies; after the membranes were washed four times with TBST, incubation was conducted for 1.5 h at a normal temperature by using HRP-labeled second antibodies (1:10000); and after the membranes were washed four times with TBST, the proteins were developed with an ECL, and protein bands of various groups were subjected to gray scale analysis with an Image-J gel image analysis software.

[3] = CCl4 mice liver, 5 mg/kg and 10 mg/kg, 4 weeks, q-PCR (FIG. 9)
[4] = CCl4 mice, low-dosage 5 mg/kg and high-dosage 10 mg/kg intragastrically every day, 4 weeks (FIG. 8)

Structure (SMILES): C[C@@H]1CC[C@]2(C(=O)O)CC[C@]3(C)C(=CC[C@@H]4[C@@]5(C)CC[C@H](O[C@@H]6OC[C@H](O)[C@H](O)[C@H]6O)C(C)(C)[C@@H]5CC[C@]43C)[C@@H]2[C@]1(C)O [(XIII), ziyuglycoside II]
- MMP2 gene expression [1]: 7.38 ± 3.48 fold induction compared with the control group
- TGF-β gene expression [1]: 3.03 ± 0.76 fold induction compared with the control group
- collagen 1 gene expression [1]: 8.16 ± 3.37 fold induction compared with the control group
- hepatic fibrosis induced by CCl4 ([1]; CCl4 mice, summary in words): effectively inhibit

Structure (SMILES): CC1(C)CC[C@]2(C(=O)O[C@@H]3O[C@H](CO)[C@@H](O)[C@H](O)[C@H]3O)CC[C@]3(C)C(=CC[C@@H]4[C@@]5(C)CC[C@H](O[C@@H]6O[C@H](C(=O)O)[C@@H](O)[C@H](O)[C@H]6O[C@@H]6O[C@H](CO)[C@@H](O)[C@H](O)[C@H]6O)C(C)(C)[C@@H]5CC[C@]43C)[C@@H]2C1 [(I), ginsenoside Ro]
- mRNA expression level of -SMA [1, 3]: significantly lowered
- mRNA expression level of MMP2 [1, 3]: significantly lowered
- mRNA expression level of TGF [1, 3]: significantly lowered
- mRNA expression level of collagen 1 [1, 3]: significantly lowered
- level of the ALT in the serum [1, 4]: significantly lowered
- level of the AST in the serum [1, 4]: significantly lowered
- hepatic fibrosis induced by CCl4 ([1]; CCl4 mice, summary in words): significantly inhibit
- inflammatory responses of hepatic fibrosis animal models ([1]; CCl4 mice, summary in words): significantly inhibit

Structure (SMILES): CC1(C)CC[C@]2(C(=O)O[C@@H]3O[C@H](CO[C@@H]4O[C@H](CO)[C@@H](O)[C@H](O)[C@H]4O)[C@@H](O)[C@H](O)[C@H]3O)CC[C@]3(C)C(=CC[C@@H]4[C@@]5(C)CC[C@H](O[C@@H]6OC[C@H](O)[C@H](O)[C@H]6O)[C@@](C)(CO)[C@@H]5CC[C@]43C)[C@@H]2C1 [(II), asperosaponin VI]
- phosphorylation level of 4E-BP1 [2]: lowered
- phosphorylation level of AMPKa [2]: increased
- phosphorylation level of mTOR [2]: lowered
- phosphorylation level of p70S6K [2]: lowered

Structure (SMILES): C[C@@H]1O[C@@H](O[C@H]2[C@H](O[C@H]3CC[C@@]4(C)[C@@H](CC[C@]5(C)[C@@H]4CC=C4[C@@H]6CC(C)(C)CC[C@]6(C(=O)O)CC[C@]45C)[C@]3(C)CO)OC[C@H](O)[C@@H]2O)[C@H](O)[C@H](O)[C@H]1O [(X), α-hederin]
- MMP2 gene expression [1]: 6.37 ± 5.73 fold induction compared with the control group
- TGF-β gene expression [1]: 2.75 ± 0.99 fold induction compared with the control group
- collagen 1 gene expression [1]: 7.93 ± 2.28 fold induction compared with the control group
- hepatic fibrosis induced by CCl4 ([1]; CCl4 mice, summary in words): effectively inhibit

Structure (SMILES): C[C@@H]1CC[C@]2(C(=O)O[C@@H]3O[C@H](CO)[C@@H](O)[C@H](O)[C@H]3O)CC[C@]3(C)C(=CC[C@@H]4[C@@]5(C)CC[C@H](O[C@@H]6OC[C@H](O)[C@H](O)[C@H]6O)C(C)(C)[C@@H]5CC[C@]43C)[C@@H]2[C@]1(C)O [(XII), ziyuglycoside I]
- MMP2 gene expression [1]: 8.38 ± 3.86 fold induction compared with the control group
- TGF-β gene expression [1]: 2.91 ± 1.10 fold induction compared with the control group
- collagen 1 gene expression [1]: 7.65 ± 2.43 fold induction compared with the control group
- hepatic fibrosis induced by CCl4 ([1]; CCl4 mice, summary in words): effectively inhibit

Structure (SMILES): C[C@@H]1O[C@@H](O[C@H]2[C@H](O[C@H]3CC[C@@]4(C)[C@@H](CC[C@]5(C)[C@@H]4CC=C4[C@@H]6CC(C)(C)CC[C@]6(C(=O)O[C@@H]6O[C@H](CO[C@@H]7O[C@H](CO)[C@@H](O[C@@H]8O[C@@H](C)[C@H](O)[C@@H](O)[C@H]8O)[C@H](O)[C@H]7O)[C@@H](O)[C@H](O)[C@H]6O)CC[C@]45C)[C@]3(C)CO)OC[C@H](O)[C@@H]2O)[C@H](O)[C@H](O)[C@H]1O [(XI), hederacoside C]
- MMP2 gene expression [1]: 7.65 ± 4.03 fold induction compared with the control group
- TGF-β gene expression [1]: 2.96 ± 1.01 fold induction compared with the control group
- collagen 1 gene expression [1]: 8.07 ± 3.27 fold induction compared with the control group
- hepatic fibrosis induced by CCl4 ([1]; CCl4 mice, summary in words): effectively inhibit

Source: patent publication US20220331348A1, “METHOD OF PREPARING PENTACYCLIC TRITERPENOID SAPONINS AND DRUG COMPOSITION” (CHINA PHARMACEUTICAL UNIVERSITY, priority 2019, published 2022)
